Active and inactive are the calls of the source. No rule for the calls is given here.
tested on: 3C-like protease (Infectious bronchitis virus); assay: blockers of SARS 3CLpro activity – biochemical, fluorescence, set 3, late-stage follow-up (AID 493245); details: recombinant 3CLpro, fluorogenic substrate cleavage; at 100 µM; hits give high values

Row | SMILES | inhibition
1 | CC(C)(C)NC(=O)C(c1cccnc1)N(C(=O)c1ccco1)C1CC2CCC1C2 (stereo unspecified) | 5.71% (inactive)
2 | CC(C)(C)NC(=O)C(c1cccnc1)N(C(=O)c1ccco1)C1CCCCC1 (stereo unspecified) | 4.49% (inactive)
3 | O=C(Nc1ccc(N(C(=O)Cn2nnc3ccccc32)C(C(=O)NCc2ccccc2)c2cccc(F)c2)cc1)C1CC1 (stereo unspecified) | 68.8%
4 | CC(C)C(=O)Nc1ccc(N(C(=O)Cn2nnc3ccccc32)C(C(=O)NCc2ccccc2)c2cccc(F)c2)cc1 (stereo unspecified) | 73.5%
5 | CC(C)(C)NC(=O)C(c1cccnc1)N(C(=O)c1ccco1)C12CC3CC(CC(C3)C1)C2 (stereo unspecified) | 1.27% (inactive)
6 | O=C(Nc1ccc(N(C(=O)Cn2nnc3ccccc32)C(C(=O)NCc2ccccc2)c2cccc(F)c2)cc1)C1CCC1 (stereo unspecified) | 62.5%

— PubChem BioAssay AID493245 (The Scripps Research Institute Molecular Screening Center, 2011)
